How the values were obtained:
D(1A) dopamine receptor = D(1A) dopamine receptor (Homo sapiens, UniProt P21728); assay: biochemical
Description: Displacement of [3H]SCH23390 from human dopamine D1 receptor expressed in HEK cells

D(1B) dopamine receptor = D(1B) dopamine receptor (Homo sapiens, UniProt P21918); assay: biochemical
Histamine H3 receptor = Histamine H3 receptor (Homo sapiens, UniProt Q9Y5N1); assay: biochemical; type: cell-based, HEK293
Description: Displacement of [125I]iodoproxyfan from human histamine H3 receptor expressed in CHO/HEK293 cells

D(2) dopamine receptor = D(2) dopamine receptor (Homo sapiens, UniProt P14416); assay: biochemical; type: cell-based, CHO
Description: Displacement of [3H]spiperone from human dopamine D2 receptor expressed in CHO cells

D(3) dopamine receptor = D(3) dopamine receptor (Homo sapiens, UniProt P35462); assay: biochemical
Sequence of D(3) dopamine receptor (P35462 whole entry): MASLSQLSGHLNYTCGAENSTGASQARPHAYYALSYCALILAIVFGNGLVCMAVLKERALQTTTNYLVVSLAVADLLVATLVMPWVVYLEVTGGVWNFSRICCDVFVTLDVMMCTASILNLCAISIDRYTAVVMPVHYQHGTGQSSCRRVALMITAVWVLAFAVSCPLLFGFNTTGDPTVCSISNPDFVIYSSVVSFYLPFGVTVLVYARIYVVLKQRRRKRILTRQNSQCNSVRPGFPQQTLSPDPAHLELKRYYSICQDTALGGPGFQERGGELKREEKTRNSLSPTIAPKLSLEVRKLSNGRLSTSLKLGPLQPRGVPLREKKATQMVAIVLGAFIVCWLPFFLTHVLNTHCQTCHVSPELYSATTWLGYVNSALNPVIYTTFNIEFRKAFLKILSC
Description: Displacement of [3H]spiperone from human dopamine D3 receptor expressed in CHO cells

Mus musculus = species on record: Mus musculus; assay: animal or person; type: functional; settings: Swiss, Cerebral cortex, po, 1.5 h
Description: Antagonist activity at histamine H3 receptor in po dosed Swiss mouse cerebral cortex assessed as Ntau-methylhistamine level after 90 mins by radioimmunoassay

Sequence of D(1A) dopamine receptor (P21728 whole entry): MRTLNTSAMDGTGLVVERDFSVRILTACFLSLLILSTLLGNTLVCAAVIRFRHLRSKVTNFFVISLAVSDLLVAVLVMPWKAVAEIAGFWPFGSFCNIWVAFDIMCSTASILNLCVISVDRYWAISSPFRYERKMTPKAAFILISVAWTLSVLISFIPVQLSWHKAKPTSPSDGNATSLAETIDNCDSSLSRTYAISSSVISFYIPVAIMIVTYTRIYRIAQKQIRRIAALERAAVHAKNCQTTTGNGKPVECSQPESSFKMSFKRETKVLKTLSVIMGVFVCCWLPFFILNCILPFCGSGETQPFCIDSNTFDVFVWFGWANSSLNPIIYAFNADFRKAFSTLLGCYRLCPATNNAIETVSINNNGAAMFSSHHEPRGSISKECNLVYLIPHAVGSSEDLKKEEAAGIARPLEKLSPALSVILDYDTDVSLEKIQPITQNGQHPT
Sequence of Histamine H3 receptor (Q9Y5N1 whole entry): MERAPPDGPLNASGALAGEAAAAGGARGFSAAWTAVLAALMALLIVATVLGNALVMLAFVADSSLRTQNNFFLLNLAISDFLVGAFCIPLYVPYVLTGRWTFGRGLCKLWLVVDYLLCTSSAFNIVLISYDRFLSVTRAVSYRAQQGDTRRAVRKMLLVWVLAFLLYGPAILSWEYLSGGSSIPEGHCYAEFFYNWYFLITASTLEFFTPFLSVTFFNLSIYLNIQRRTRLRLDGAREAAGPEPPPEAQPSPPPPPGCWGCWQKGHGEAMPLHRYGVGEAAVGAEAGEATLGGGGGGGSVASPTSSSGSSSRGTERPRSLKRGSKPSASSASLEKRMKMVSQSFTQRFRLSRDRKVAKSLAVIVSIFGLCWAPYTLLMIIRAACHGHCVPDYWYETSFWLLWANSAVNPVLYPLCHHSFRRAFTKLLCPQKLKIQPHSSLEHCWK
Sequence of D(2) dopamine receptor (P14416 whole entry): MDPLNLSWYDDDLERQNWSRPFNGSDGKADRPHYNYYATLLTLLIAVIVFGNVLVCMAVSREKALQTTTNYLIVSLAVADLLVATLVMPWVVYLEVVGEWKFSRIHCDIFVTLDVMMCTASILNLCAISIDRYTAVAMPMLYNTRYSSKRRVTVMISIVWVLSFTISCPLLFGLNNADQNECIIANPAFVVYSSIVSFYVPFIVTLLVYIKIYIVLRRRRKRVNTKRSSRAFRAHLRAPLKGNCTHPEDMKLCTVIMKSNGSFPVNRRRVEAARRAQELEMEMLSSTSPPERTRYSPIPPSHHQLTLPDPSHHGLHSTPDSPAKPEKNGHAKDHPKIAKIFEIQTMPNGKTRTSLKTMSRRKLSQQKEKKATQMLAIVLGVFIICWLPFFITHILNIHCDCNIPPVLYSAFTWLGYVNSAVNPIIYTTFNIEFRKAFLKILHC
Sequence of D(1B) dopamine receptor (P21918 whole entry): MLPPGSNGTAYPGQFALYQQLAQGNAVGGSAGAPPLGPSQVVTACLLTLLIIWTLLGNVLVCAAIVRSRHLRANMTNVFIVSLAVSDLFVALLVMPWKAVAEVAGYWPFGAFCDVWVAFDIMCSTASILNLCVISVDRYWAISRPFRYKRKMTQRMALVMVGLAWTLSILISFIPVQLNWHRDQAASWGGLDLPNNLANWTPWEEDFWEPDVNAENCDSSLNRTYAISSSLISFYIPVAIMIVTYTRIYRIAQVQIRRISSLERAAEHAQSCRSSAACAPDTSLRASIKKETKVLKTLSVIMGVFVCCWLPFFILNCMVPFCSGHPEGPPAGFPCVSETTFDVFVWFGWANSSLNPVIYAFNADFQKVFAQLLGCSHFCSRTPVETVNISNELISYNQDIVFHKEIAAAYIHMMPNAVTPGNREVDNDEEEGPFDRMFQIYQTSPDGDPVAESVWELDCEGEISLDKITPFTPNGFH

| Ki (D(1A) dopamine receptor) [nM] | Ki (D(1B) dopamine receptor) [nM] | Ki (Histamine H3 receptor) [nM] | Ki (D(2) dopamine receptor) [nM] | Ki (D(3) dopamine receptor) [nM] | SMILES | ED50 (Mus musculus) [mg/kg] |
| --- | --- | --- | --- | --- | --- | --- |
| 879 | > 1000 | 4.9 | 904 | 326 | CN(CCC=C1c2ccccc2CCc2ccccc21)C(=O)Cc1ccc(OCCCN2CCCCC2)cc1 | – |
| 305 | 273 | 0.25 | 101 | 67 | CN(CCC=C1c2ccccc2CCc2ccccc21)Cc1ccc(OCCCN2CCCCC2)cc1 | > 10 |
| > 1000 | > 1000 | 3.5 | > 1000 | 243 | CN(CCC=C1c2ccccc2CCc2ccccc21)C(=O)c1ccc(OCCCN2CCCCC2)cc1 | – |
| 248 | – | 1.54 | 52 | 50 | CN(CC/C=C1\c2ccccc2Sc2ccc(Cl)cc21)Cc1ccc(OCCCN2CCCCC2)cc1 | – |

More lines, now with the values behind:

| SMILES | Ki (D(1A) dopamine receptor) [nM] | Ki (D(1B) dopamine receptor) [nM] | Ki (Histamine H3 receptor) [nM] | Ki (D(2) dopamine receptor) [nM] | Ki (D(3) dopamine receptor) [nM] | ED50 (Mus musculus) [mg/kg] |
| --- | --- | --- | --- | --- | --- | --- |
| O=C(OCCN1CCN(CCCN2c3ccccc3Sc3ccc(C(F)(F)F)cc32)CC1)c1ccc(OCCCN2CCCCC2)cc1 | 203 | 265 | 0.042 | 47 | 15 | – |
| CN(CCCN1c2ccccc2Sc2ccc(Cl)cc21)Cc1ccc(OCCCN2CCCCC2)cc1 | 232 | 153 | 1.21 | 41 | 50 | – |
| Clc1ccc2c(c1)N=C(N1CCN(Cc3ccc(OCCCN4CCCCC4)cc3)CC1)c1ccccc1N2 | 866 | 921 | 3.27 | 285 | 223 | – |
| CN(CCCC12CCC(c3ccccc31)c1ccccc12)Cc1ccc(OCCCN2CCCCC2)cc1 | 203 | 265 | 0.358 | 146 | 149 | – |
| CN(C)CCC=C1c2ccccc2CCc2ccccc21 [AMITRIPTYLINE] | […] | 170 | > 1000 | 196 | 206 | – |
| CN(C)CC/C=C1/c2ccccc2Sc2ccc(Cl)cc21 [CHLORPROTHIXENE] | – | 9 | – | 2.96 | 4.56 | – |

Source: ChEMBL document CHEMBL1149085, “Potential utility of histamine H3 receptor antagonist pharmacophore in antipsychotics” (Bioorg Med Chem Lett, 2009)
